“And” between values parts separate entries of the source, which are not always exact repeats. Identical values can stand only once. Counter-ions that a name gives are not always drawn. Like-named read-outs stand apart in the source and are kept apart here.
Tests used:
[1] = target: T1, 5-HT3R (Cavia porcellus, UniProt O70212); settings: for antagonist effect: percent inhibition of response to 5-HT 3 μM (contraction of guinea pig ileum); for functional classification at 5-HT3R: guinea pig ileum contraction
T1 sequence (O70212 20-490): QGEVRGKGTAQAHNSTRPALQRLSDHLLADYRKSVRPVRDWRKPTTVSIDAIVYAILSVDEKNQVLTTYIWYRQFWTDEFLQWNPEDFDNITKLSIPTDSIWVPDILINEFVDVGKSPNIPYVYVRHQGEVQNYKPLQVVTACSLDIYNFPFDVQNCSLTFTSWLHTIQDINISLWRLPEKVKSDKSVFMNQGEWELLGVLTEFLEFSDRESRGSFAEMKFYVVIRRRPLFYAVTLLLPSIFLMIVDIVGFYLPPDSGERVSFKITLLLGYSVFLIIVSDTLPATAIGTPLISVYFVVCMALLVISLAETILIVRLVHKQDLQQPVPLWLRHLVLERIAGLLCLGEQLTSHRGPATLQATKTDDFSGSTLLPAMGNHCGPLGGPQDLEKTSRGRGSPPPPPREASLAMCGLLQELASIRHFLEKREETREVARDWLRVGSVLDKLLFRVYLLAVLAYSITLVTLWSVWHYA
Description: Isolated guinea pig ileum was employed to test the affinity and the intrinsic activity of the investigated compounds for 5-HT3 receptors. […] A 15 cm ileum segment was excised from the small intestine of male guinea pigs and immersed into a Krebs solution (NaCl 120 mM, KCl 5.6 mM, MgCl2 2.2 mM, CaCl2 2.4 mM, NaHCO3 19 mM, glucose 10 mM). After the first 5 cm length closest to the ileocaecal junction had been discarded 2 cm-long fragments were cut. Each segment of the ileum was placed in a 20 mL chamber of tissue organ bath system (Tissue Organ Bath System – 750 TOBS, DMT, Denmark) filled with the Krebs solution at 37° C, pH 7.4, with constant oxygenation (O2/CO2, 19:1), fixed by the lower end to a rod and by the upper end to the force–displacement transducer. The preparation was allowed to stabilize in organ baths for 60 min under a resting tension of 0.5 g, washing every 15 min with fresh Krebs solution. After the equilibration period, a cumulative concentration–response curve was constructed in each tissue for 5-HT (10 nM – 10 μM) by the method of van Rossum.[64] […] Selected compounds were tested using an additional method. After establishment of the first 5-HT concentration–response curve, washing out of the tissue, and stabilization period, the same tissues were subsequently incubated with one of the concentrations of the tested compound for 15 min and the next cumulative concentration curve to 5-HT was obtained. Only one concentration of a studied compound was tested in each piece of tissue.

Row | Compound | melting point | antagonist effect ([1]; 300 nM) | also measured
1 | O=S(=O)(c1cccc(C(F)(F)F)c1)n1ccc2c(N3CCNCC3)nc3ccccc3c21 (as salt: hydrochloride) [Compound 19, 1-{[3-(Trifluoromethyl)phenyl]sulfonyl}-4-(piperazin-1-yl)-1H-pyrrolo[3,2-c]quinoline dihydrochloride] | 182 to 185 °C |  | 
2 | O=S(=O)(c1cc(F)ccc1F)n1ccc2c(N3CCNCC3)nc3ccccc3c21 (as salt: hydrochloride) [Compound 27, 1-[(2,5-Difluorophenyl)sulfonyl]-4-(piperazin-1-yl)-1H-pyrrolo[3,2-c]quinoline dihydrochloride] | 204 to 206 °C |  | 
3 | O=S(=O)(c1ccc(C(F)(F)F)cc1)n1ccc2c(N3CCNCC3)nc3ccccc3c21 (as salt: hydrochloride) [Compound 23, 1-{[4-(Trifluoromethyl)phenyl]sulfonyl}-4-(piperazin-1-yl)-1H-pyrrolo[3,2-c]quinoline dihydrochloride] | 165 to 167 °C |  | 
4 | O=S(=O)(c1ccc(F)c(F)c1)n1ccc2c(N3CCNCC3)nc3ccccc3c21 (as salt: hydrochloride) | 180 to 182 °C |  | 
5 | O=S(=O)(c1ccccc1)n1ccc2c(N[C@H]3CCNC3)nc3ccccc3c21 [Compound 8, (S)-1-(Phenylsulfonyl)-N-(pyrrolidin-3-yl)-1H-pyrrolo[3,2-c]quinolin-4-amine dihydrochloride] |  | 32% and 32 (300 nM) % | 
6 | CN1CCN(c2nc3ccccc3c3c2ccn3S(=O)(=O)c2cccc(F)c2)CC1 [Compound 12, 1-[(3-Fluorophenyl)sulfonyl]-4-(4-methylpiperazin-1-yl)-1H-pyrrolo[3,2-c]quinoline hydrochloride] |  |  | antagonist effect ([1]; 30 nM): 30%; antagonist effect ([1]; 100 nM): 74%
7 | O=S(=O)(c1ccccc1)n1ccc2c(N3CCNCC3)nc3ccccc3c21 (as salt: hydrochloride) [Compound 7, 1-(Phenylsulfonyl)-4-(piperazin-1-yl)-1H-pyrrolo[3,2-c]quinoline dihydrochloride] | 130 to 132 °C |  | 
8 | CC(C)c1ccc(S(=O)(=O)n2ccc3c(N4CCNCC4)nc4ccccc4c32)cc1 (as salt: hydrochloride) [Compound 24, 1-[(4-iso-Propylphenyl)sulfonyl]-4-(piperazin-1-yl)-1H-pyrrolo[3,2-c]quinoline dihydrochloride] | 212 to 214 °C |  | 
9 | CN1CCN(c2nc3ccccc3c3c2ccn3S(=O)(=O)c2ccccc2)CC1 [Compound 6, 1-(Phenylsulfonyl)-4-(4-methylpiperazin-1-yl)-1H-pyrrolo[3,2-c]quinoline hydrochloride] |  | 48% | antagonist effect ([1]; 100 nM): 28%; functional classification at 5-HT3R [1]: antagonistic properties
10 | CN1CCN(c2nc3ccccc3c3c2ccn3S(=O)(=O)c2ccccc2)CC1 (as salt: hydrochloride) [Compound 6, 1-(Phenylsulfonyl)-4-(4-methylpiperazin-1-yl)-1H-pyrrolo[3,2-c]quinoline hydrochloride] | 127 to 129 °C |  | 
11 | CN1CCN(c2nc3ccccc3c3c2ccn3S(=O)(=O)c2cccc(Cl)c2)CC1 [Compound 13, 1-[(3-Chlorophenyl)sulfonyl]-4-(4-methylpiperazin-1-yl)-1H-pyrrolo[3,2-c]quinoline hydrochloride] |  | 44% | antagonist effect ([1]; 100 nM): 10%
12 | O=S(=O)(c1ccccc1)n1ccc2c(N3CCCNCC3)nc3ccccc3c21 [Compound 11, 4-(1,4-Diazepan-1-yl)-1-(phenylsulfonyl)-1H-pyrrolo[3,2-c]quinoline dihydrochloride] |  | 53% and 53 (300 nM) % | 
13 | Cc1cccc(S(=O)(=O)n2ccc3c(N4CCNCC4)nc4ccccc4c32)c1 (as salt: hydrochloride) [Compound 20, 1-[(3-Methylphenyl)sulfonyl]-4-(piperazin-1-yl)-1H-pyrrolo[3,2-c]quinoline dihydrochloride] | 179 to 181 °C |  | 
14 | O=S(=O)(c1ccc(Cl)c(Cl)c1)n1ccc2c(N3CCNCC3)nc3ccccc3c21 (as salt: hydrochloride) | 203 to 205 °C |  | 
15 | O=S(=O)(c1cccc(C(F)(F)F)c1)n1ccc2c(N3CCNCC3)nc3ccccc3c21 [Compound 19, 1-{[3-(Trifluoromethyl)phenyl]sulfonyl}-4-(piperazin-1-yl)-1H-pyrrolo[3,2-c]quinoline dihydrochloride] |  | 37% | antagonist effect ([1]; 100 nM): 21%; pD2′ ([1]; antagonist potency, guinea pig ileum): 6.09
16 | CN1CCN(c2nc3ccccc3c3c2ccn3S(=O)(=O)c2cccc(F)c2)CC1 (as salt: hydrochloride) [Compound 12, 1-[(3-Fluorophenyl)sulfonyl]-4-(4-methylpiperazin-1-yl)-1H-pyrrolo[3,2-c]quinoline hydrochloride] | 176 to 177 °C |  | 
17 | O=S(=O)(c1ccccc1)n1ccc2c(NC3CNC3)nc3ccccc3c21 [Compound 9, N-(Azetidin-3-yl)-1-(phenylsulfonyl)-1H-pyrrolo[3,2-c]quinolin-4-amine dihydrochloride] |  | 35% and 35 (300 nM) % | 
18 | O=S(=O)(c1ccccc1Br)n1ccc2c(N3CCNCC3)nc3ccccc3c21 (as salt: hydrochloride) [Compound 15, 1-[(2-Bromophenyl)sulfonyl]-4-(piperazin-1-yl)-1H-pyrrolo[3,2-c]quinoline dihydrochloride] | 158 to 160 °C |  | 
19 | O=S(=O)(c1ccccc1)n1ccc2c(NC3CNC3)nc3ccccc3c21 (as salt: hydrochloride) [Compound 9, N-(Azetidin-3-yl)-1-(phenylsulfonyl)-1H-pyrrolo[3,2-c]quinolin-4-amine dihydrochloride] | 243 to 246 °C |  | 
20 | O=S(=O)(c1cccc2ccccc12)n1ccc2c(N3CCNCC3)nc3ccccc3c21 (as salt: hydrochloride) | 218 to 220 °C |  | 
21 | O=S(=O)(c1cccc(Cl)c1)n1ccc2c(N3CCNCC3)nc3ccccc3c21 (as salt: hydrochloride) [Compound 18, 1-[(3-Chlorophenyl)sulfonyl]-4-(piperazin-1-yl)-1H-pyrrolo[3,2-c]quinoline dihydrochloride] | 161 to 163 °C |  | 
22 | O=S(=O)(c1ccccc1)n1ccc2c(N3CCNCC3)nc3ccccc3c21 [Compound 7, 1-(Phenylsulfonyl)-4-(piperazin-1-yl)-1H-pyrrolo[3,2-c]quinoline dihydrochloride] |  | 60% | antagonist effect ([1]; 100 nM): 26%; functional classification at 5-HT3R [1]: antagonistic properties
23 | O=S(=O)(c1cc(F)ccc1F)n1ccc2c(N3CCNCC3)nc3ccccc3c21 [Compound 27, 1-[(2,5-Difluorophenyl)sulfonyl]-4-(piperazin-1-yl)-1H-pyrrolo[3,2-c]quinoline dihydrochloride] |  | 32 (300 nM) % | 
24 | CNC1CCN(c2nc3ccccc3c3c2ccn3S(=O)(=O)c2ccccc2)C1 (stereo not shown) [Compound 10, N-Methyl-1-(1-(phenylsulfonyl)-1H-pyrrolo[3,2-c]quinolin-4-yl)pyrrolidin-3-amine dihydrochloride] |  | 48% and 48 (300 nM) % | 
25 | COc1cccc(S(=O)(=O)n2ccc3c(N4CCNCC4)nc4ccccc4c32)c1 [Compound 21, 1-[(3-Methoxyphenyl)sulfonyl]-4-(piperazin-1-yl)-1H-pyrrolo[3,2-c]quinoline dihydrochloride] |  | 73% | antagonist effect ([1]; 100 nM): 28%
